ChEMBL document CHEMBL4665624, “Synthesis of 5-(4-(1H-phenanthro[9,10-d]imidazol-2-yl)benzylidene)thiazolidine-2,4-dione as promising DNA and serum albumin-binding agents and evaluation of antitumor activity” (Eur J Med Chem, 2019)

Experiments:
[1] = tested on: CCRF-CEM; experiment: Antitumor activity against human CCRF-CEM cells assessed as cell growth inhibition at 10 uM incubated for 48 hrs by sulforhodamine B assay; assay type: functional; conditions: read-out: GI
[2] = tested on: HL-60(TB); experiment: Antitumor activity against human HL-60(TB) cells assessed as cell growth inhibition at 10 uM incubated for 48 hrs by sulforhodamine B assay; assay type: functional; conditions: read-out: GI
[3] = tested on: K562; experiment: Antitumor activity against human K562 cells assessed as cell growth inhibition at 10 uM incubated for 48 hrs by sulforhodamine B assay; assay type: functional; conditions: read-out: GI
[4] = tested on: MOLT-4; experiment: Antitumor activity against human MOLT4 cells assessed as cell growth inhibition at 10 uM incubated for 48 hrs by sulforhodamine B assay; assay type: functional; conditions: read-out: GI
[5] = tested on: RPMI-8226; experiment: Antitumor activity against human RPMI8226 cells assessed as cell growth inhibition at 10 uM incubated for 48 hrs by sulforhodamine B assay; assay type: functional; conditions: read-out: GI
[6] = tested on: SR; experiment: Antitumor activity against human SR cells assessed as cell growth inhibition at 10 uM incubated for 48 hrs by sulforhodamine B assay; assay type: functional; conditions: read-out: GI
[7] = tested on: EKVX; experiment: Antitumor activity against human EKVX cells assessed as cell growth inhibition at 10 uM incubated for 48 hrs by sulforhodamine B assay; assay type: functional; conditions: read-out: GI
[8] = tested on: HOP-92; experiment: Antitumor activity against human HOP92 cells assessed as cell growth inhibition at 10 uM incubated for 48 hrs by sulforhodamine B assay; assay type: functional; conditions: read-out: GI
[9] = tested on: NCI-H226; experiment: Antitumor activity against human NCI-H226 assessed as cell growth inhibition at 10 uM incubated for 48 hrs by sulforhodamine B assay; assay type: functional; conditions: read-out: GI
[10] = tested on: NCI-H23; experiment: Antitumor activity against human NCI-H23 cells assessed as cell growth inhibition at 10 uM incubated for 48 hrs by sulforhodamine B assay; assay type: functional; conditions: read-out: GI
[11] = tested on: NCI-H460; experiment: Antitumor activity against human NCI-H460 assessed as cell growth inhibition at 10 uM incubated for 48 hrs by sulforhodamine B assay; assay type: functional; conditions: read-out: GI
[12] = tested on: NCI-H522; experiment: Antitumor activity against human NCI-H522 cells assessed as cell growth inhibition at 10 uM incubated for 48 hrs by sulforhodamine B assay; assay type: functional; conditions: read-out: GI
[13] = tested on: COLO 205; experiment: Antitumor activity against human COLO205 cells assessed as cell growth inhibition at 10 uM incubated for 48 hrs by sulforhodamine B assay; assay type: functional; conditions: read-out: GI
[14] = tested on: HCC 2998; experiment: Antitumor activity against human HCC2998 cells assessed as cell growth inhibition at 10 uM incubated for 48 hrs by sulforhodamine B assay; assay type: functional; conditions: read-out: GI
[15] = tested on: HCT-116; experiment: Antitumor activity against human HCT116 cells assessed as cell growth inhibition at 10 uM incubated for 48 hrs by sulforhodamine B assay; assay type: functional; conditions: read-out: GI
[16] = tested on: HCT-15; experiment: Antitumor activity against human HCT15 cells assessed as cell growth inhibition at 10 uM incubated for 48 hrs by sulforhodamine B assay; assay type: functional; conditions: read-out: GI
[17] = tested on: HT-29; experiment: Antitumor activity against human HT-29 cells assessed as cell growth inhibition at 10 uM incubated for 48 hrs by sulforhodamine B assay; assay type: functional; conditions: read-out: GI
[18] = tested on: KM12; experiment: Antitumor activity against human KM12 cells assessed as cell growth inhibition at 10 uM incubated for 48 hrs by sulforhodamine B assay; assay type: functional; conditions: read-out: GI
[19] = tested on: SF-268; experiment: Antitumor activity against human SF268 cells assessed as cell growth inhibition at 10 uM incubated for 48 hrs by sulforhodamine B assay; assay type: functional; conditions: read-out: GI
[20] = tested on: SF-295; experiment: Antitumor activity against human SF295 cells assessed as cell growth inhibition at 10 uM incubated for 48 hrs by sulforhodamine B assay; assay type: functional; conditions: read-out: GI
[21] = tested on: SNB-19; experiment: Antitumor activity against human SNB-19 cells assessed as cell growth inhibition at 10 uM incubated for 48 hrs by sulforhodamine B assay; assay type: functional; conditions: read-out: GI
[22] = tested on: SNB-75; experiment: Antitumor activity against human SNB-75 cells assessed as cell growth inhibition at 10 uM incubated for 48 hrs by sulforhodamine B assay; assay type: functional; conditions: read-out: GI
[23] = tested on: U-251; experiment: Antitumor activity against human U251 cells assessed as cell growth inhibition at 10 uM incubated for 48 hrs by sulforhodamine B assay; assay type: functional; conditions: read-out: GI
[24] = tested on: LOX IMVI; experiment: Antitumor activity against human LOX IMVI cells assessed as cell growth inhibition at 10 uM incubated for 48 hrs by sulforhodamine B assay; assay type: functional; conditions: read-out: GI
[25] = tested on: Malme-3M; experiment: Antitumor activity against human MALME-3M cells assessed as cell growth inhibition at 10 uM incubated for 48 hrs by sulforhodamine B assay; assay type: functional; conditions: read-out: GI
[26] = tested on: M14; experiment: Antitumor activity against human M14 cells assessed as cell growth inhibition at 10 uM incubated for 48 hrs by sulforhodamine B assay; assay type: functional; conditions: read-out: GI
[27] = tested on: MDA-MB-435; experiment: Antitumor activity against human MDA-MB-435 cells assessed as cell growth inhibition at 10 uM incubated for 48 hrs by sulforhodamine B assay; assay type: functional; conditions: read-out: GI
[28] = tested on: SK-MEL-28; experiment: Antitumor activity against human SK-MEL-28 cells assessed as cell growth inhibition at 10 uM incubated for 48 hrs by sulforhodamine B assay; assay type: functional; conditions: read-out: GI
[29] = tested on: UACC-62; experiment: Antitumor activity against human UACC-62 cells assessed as cell growth inhibition at 10 uM incubated for 48 hrs by sulforhodamine B assay; assay type: functional; conditions: read-out: GI
[30] = tested on: IGROV-1; experiment: Antitumor activity against human IGROV1 cells assessed as cell growth inhibition at 10 uM incubated for 48 hrs by sulforhodamine B assay; assay type: functional; conditions: read-out: GI
[31] = tested on: OVCAR-3; experiment: Antitumor activity against human OVCAR-3 cells assessed as cell growth inhibition at 10 uM incubated for 48 hrs by sulforhodamine B assay; assay type: functional; conditions: read-out: GI
[32] = tested on: OVCAR-4; experiment: Antitumor activity against human OVCAR-4 cells assessed as cell growth inhibition at 10 uM incubated for 48 hrs by sulforhodamine B assay; assay type: functional; conditions: read-out: GI
[33] = tested on: OVCAR-8; experiment: Antitumor activity against human OVCAR-8 cells assessed as cell growth inhibition at 10 uM incubated for 48 hrs by sulforhodamine B assay; assay type: functional; conditions: read-out: GI
[34] = tested on: NCI/ADR-RES; experiment: Antitumor activity against human NCI/ADR-RES cells assessed as cell growth inhibition at 10 uM incubated for 48 hrs by sulforhodamine B assay; assay type: functional; conditions: read-out: GI
[35] = tested on: SK-OV-3; experiment: Antitumor activity against human SK-OV-3 cells assessed as cell growth inhibition at 10 uM incubated for 48 hrs by sulforhodamine B assay; assay type: functional; conditions: read-out: GI
[36] = tested on: 786-0; experiment: Antitumor activity against human 786-0 cells assessed as cell growth inhibition at 10 uM incubated for 48 hrs by sulforhodamine B assay; assay type: functional; conditions: read-out: GI
[37] = tested on: A498; experiment: Antitumor activity against human A498 cells assessed as cell growth inhibition at 10 uM incubated for 48 hrs by sulforhodamine B assay; assay type: functional; conditions: read-out: GI
[38] = tested on: ACHN; experiment: Antitumor activity against human ACHN cells assessed as cell growth inhibition at 10 uM incubated for 48 hrs by sulforhodamine B assay; assay type: functional; conditions: read-out: GI
[39] = tested on: RXF 393; experiment: Antitumor activity against human RXF 393 cells assessed as cell growth inhibition at 10 uM incubated for 48 hrs by sulforhodamine B assay; assay type: functional; conditions: read-out: GI
[40] = tested on: SN12C; experiment: Antitumor activity against human SN12C cells assessed as cell growth inhibition at 10 uM incubated for 48 hrs by sulforhodamine B assay; assay type: functional; conditions: read-out: GI
[41] = tested on: UO-31; experiment: Antitumor activity against human UO-31 cells assessed as cell growth inhibition at 10 uM incubated for 48 hrs by sulforhodamine B assay; assay type: functional; conditions: read-out: GI
[42] = tested on: PC-3; experiment: Antitumor activity against human PC-3 cells assessed as cell growth inhibition at 10 uM incubated for 48 hrs by sulforhodamine B assay; assay type: functional; conditions: read-out: GI
[43] = tested on: MCF7; experiment: Antitumor activity against human MCF7 cells assessed as cell growth inhibition at 10 uM incubated for 48 hrs by sulforhodamine B assay; assay type: functional; conditions: read-out: GI
[44] = tested on: MDA-MB-231; experiment: Antitumor activity against human MDA-MB-231/ATCC cells assessed as cell growth inhibition at 10 uM incubated for 48 hrs by sulforhodamine B assay; assay type: functional; conditions: read-out: GI
[45] = tested on: Hs-578T; experiment: Antitumor activity against human HS 578T cells assessed as cell growth inhibition at 10 uM incubated for 48 hrs by sulforhodamine B assay; assay type: functional; conditions: read-out: GI
[46] = tested on: BT-549; experiment: Antitumor activity against human BT-549 cells assessed as cell growth inhibition at 10 uM incubated for 48 hrs by sulforhodamine B assay; assay type: functional; conditions: read-out: GI
[47] = tested on: MDA-MB-468; experiment: Antitumor activity against human MDA-MB-468 cells assessed as cell growth inhibition at 10 uM incubated for 48 hrs by sulforhodamine B assay; assay type: functional; conditions: read-out: GI
[48] = tested on: SW-620; experiment: Antitumor activity against human SW620 cells assessed as cell growth inhibition at 10 uM incubated for 48 hrs by sulforhodamine B assay; conditions: SW-620, 48 h, read-out: GI

Oc1ccccc1-c1nc2c3ccccc3c3ccccc3c2o1
inhibition of growth at 10 µM [1]: 17.9%
inhibition of growth at 10 µM [2]: 12%
inhibition of growth at 10 µM [3]: 11.9%
inhibition of growth at 10 µM [4]: < 10%
inhibition of growth at 10 µM [5]: 24.5%
inhibition of growth at 10 µM [6]: 26.3%
inhibition of growth at 10 µM [7]: 21.2%
inhibition of growth at 10 µM [8]: 16.2%
inhibition of growth at 10 µM [9]: 14.2%
inhibition of growth at 10 µM [10]: 14.5%
inhibition of growth at 10 µM [11]: 30.4%
inhibition of growth at 10 µM [12]: < 10%
inhibition of growth at 10 µM [13]: 14.3%
inhibition of growth at 10 µM [14]: < 10%
inhibition of growth at 10 µM [15]: 19.2%
inhibition of growth at 10 µM [16]: < 10%
inhibition of growth at 10 µM [17]: < 10%
inhibition of growth at 10 µM [18]: < 10%
inhibition of growth at 10 µM [19]: 10.2%
inhibition of growth at 10 µM [20]: < 10%
inhibition of growth at 10 µM [21]: < 10%
inhibition of growth at 10 µM [22]: 10.3%
inhibition of growth at 10 µM [23]: 18%
inhibition of growth at 10 µM [24]: < 10%
inhibition of growth at 10 µM [25]: < 10%
inhibition of growth at 10 µM [26]: < 10%
inhibition of growth at 10 µM [27]: < 10%
inhibition of growth at 10 µM [28]: < 10%
inhibition of growth at 10 µM [29]: 11.6%
inhibition of growth at 10 µM [30]: 25.9%
inhibition of growth at 10 µM [31]: < 10%
inhibition of growth at 10 µM [32]: 23.6%
inhibition of growth at 10 µM [33]: 11%
inhibition of growth at 10 µM [34]: < 10%
inhibition of growth at 10 µM [35]: < 10%
inhibition of growth at 10 µM [36]: < 10%
inhibition of growth at 10 µM [37]: < 10%
inhibition of growth at 10 µM [38]: < 10%
inhibition of growth at 10 µM [39]: < 10%
inhibition of growth at 10 µM [40]: 17%
inhibition of growth at 10 µM [41]: 39%
inhibition of growth at 10 µM [42]: 22.2%
inhibition of growth at 10 µM [43]: 37.6%
inhibition of growth at 10 µM [44]: 18.3%
inhibition of growth at 10 µM [45]: 10.5%
inhibition of growth at 10 µM [46]: < 10%
inhibition of growth at 10 µM [47]: 17%
inhibition of growth at 10 µM [48]: 31.6%
